Legend:
[1] = Drug-drug interaction study with itraconazole; type: in vivo, humans; conditions: with coadministration of itraconazole
Protocol: An open-label, fixed-sequence, 2-period drug-drug interaction (DDI) study was designed to evaluate the effect of multiple doses of a strong inhibitor of CYP3A4 and P-gp on the single-dose PK of etrumadenant in humans. Etrumadenant was supplied as 25 mg capsules. Itraconazole was used as the representative strong inhibitor of CYP3A4 and P-gp. It was supplied as 10 mg/mL oral solution, Sporanox® by Janssen Pharmaceuticals (or generic equivalent). Twenty (20) healthy, adult male and female (of non-childbearing potential) participants were enrolled. Screening of participants occurred within 28 days prior to the first dosing.
On Day 1 of Period 1, a single 150 mg dose of etrumadenant was orally administered under fasting conditions (i.e., at least 10 hours of fasting prior to dosing and at least 4 hours postdose). PK sampling for etrumadenant and its metabolites was taken predose and up to 120 hours postdose. There was a washout of 5 days between the etrumadenant dose in Period 1 and the first itraconazole dose in Period 2.
In Period 2, 200 mg itraconazole was orally administered twice a day (BID) on Day 1 and once a day (QD) for 9 consecutive days (on Days 2 through 10) with a single 150 mg dose of etrumadenant orally administered 1 hour after itraconazole dosing on Day 6. Itraconazole was administered under fasting conditions. On Day 6, participants fasted for at least 10 hours prior to and at least 4 hours post etrumadenant dosing. PK sampling for etrumadenant and its metabolites was taken predose and up to 120 hours after etrumadenant dosing. PK sampling for itraconazole and 1-hydroxy-itraconazole was collected on Days 5, 6, 7, 9, and 11.
Itraconazole was administered twice on the first day of Period 2 as a loading dose to accelerate CYP3A inhibition and the inhibition was then maintained by administering itraconazole 200 mg QD for 9 consecutive days. A 200 mg BID dose level is expected to provide similar inhibition to a 400 mg QD dose. Although itraconazole reaches steady state within approximately 15 days, it has been established that QD administration of 200 mg itraconazole for 3 to 5 days allows maximum CYP3A inhibition sufficient to detect a DDI. […] As such, administration of itraconazole for at least 4 days is considered sufficient in DDI studies as a CYP3A4 and P-gp inhibitor. To maintain the level of inhibition, itraconazole was administered throughout PK sampling of etrumadenant (i.e., through Day 10 of Period 2). In addition, the itraconazole oral solution was administered under fasting conditions to maximize bioavailability.
Participants were housed on Day −1 of Period 1, at the time indicated by the clinical research unit (CRU), until after the 120-hour blood draw and completion of study procedures in Period 2. Safety was monitored throughout the study by repeated clinical and laboratory evaluations. In this study, there were no discontinued participants. All participants who received at least one dose of study drug (including participants who terminated the study early) were asked to return to the CRU approximately 14 days after the last dose for follow-up procedures, and to determine if any adverse event (AE) had occurred since the last study visit. All adverse events reported in the study were mild and resolved without treatment.

P-gp = P-gp (Homo sapiens, UniProt P08183); conditions: 200 mg QD itraconazole for 5 days; reported in the literature; cited from earlier work
Sequence of P-gp (P08183 whole entry): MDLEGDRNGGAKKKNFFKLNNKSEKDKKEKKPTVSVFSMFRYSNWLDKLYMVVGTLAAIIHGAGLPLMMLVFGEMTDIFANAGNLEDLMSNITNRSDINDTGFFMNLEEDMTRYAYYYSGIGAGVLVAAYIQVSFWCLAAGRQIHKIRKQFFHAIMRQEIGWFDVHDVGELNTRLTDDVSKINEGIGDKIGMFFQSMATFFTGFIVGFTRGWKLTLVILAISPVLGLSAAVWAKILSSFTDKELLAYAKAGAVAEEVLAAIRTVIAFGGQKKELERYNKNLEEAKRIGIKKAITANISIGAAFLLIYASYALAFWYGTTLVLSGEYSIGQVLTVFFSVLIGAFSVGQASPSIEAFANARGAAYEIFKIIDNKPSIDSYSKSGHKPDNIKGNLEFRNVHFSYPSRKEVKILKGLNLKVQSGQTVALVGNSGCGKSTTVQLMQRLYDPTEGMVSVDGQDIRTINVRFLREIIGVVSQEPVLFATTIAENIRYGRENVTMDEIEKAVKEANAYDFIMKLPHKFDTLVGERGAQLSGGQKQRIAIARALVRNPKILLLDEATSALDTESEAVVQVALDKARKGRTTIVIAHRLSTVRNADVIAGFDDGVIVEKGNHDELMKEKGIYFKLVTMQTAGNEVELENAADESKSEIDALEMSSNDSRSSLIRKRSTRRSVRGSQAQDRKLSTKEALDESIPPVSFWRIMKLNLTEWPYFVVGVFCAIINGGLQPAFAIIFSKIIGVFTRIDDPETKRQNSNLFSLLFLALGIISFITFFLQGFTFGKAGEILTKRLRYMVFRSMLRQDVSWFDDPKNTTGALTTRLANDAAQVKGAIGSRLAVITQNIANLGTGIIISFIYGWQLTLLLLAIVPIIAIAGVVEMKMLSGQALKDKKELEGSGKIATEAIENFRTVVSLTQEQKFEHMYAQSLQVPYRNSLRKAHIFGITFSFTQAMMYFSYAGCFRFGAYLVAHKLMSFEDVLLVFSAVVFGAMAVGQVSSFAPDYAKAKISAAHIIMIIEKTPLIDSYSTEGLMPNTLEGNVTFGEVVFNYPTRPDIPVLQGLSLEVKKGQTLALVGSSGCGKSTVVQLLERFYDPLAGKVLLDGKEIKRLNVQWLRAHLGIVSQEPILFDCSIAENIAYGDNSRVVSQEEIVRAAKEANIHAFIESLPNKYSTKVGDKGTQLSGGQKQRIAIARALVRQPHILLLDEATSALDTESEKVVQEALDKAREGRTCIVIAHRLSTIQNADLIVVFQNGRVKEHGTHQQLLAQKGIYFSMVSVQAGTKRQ

Row | Compound | decrease in metabolite-to-parent ratio MP AUC0-24 [1] | decrease in metabolite-to-parent ratio MP Cmax [1] | increase of oral digoxin AUC (P-gp)
1 | Cc1c(C#N)cccc1-c1cc(-c2c[nH]nn2)nc(N)n1 [N-dealkylated etrumadenant] | approximately 87% | ~90% | –
2 | C[C@H]1O[C@@H](O[C@H]2[C@@H](O)C[C@H](O[C@H]3[C@@H](O)C[C@H](O[C@H]4CC[C@@]5(C)[C@H](CC[C@@H]6[C@@H]5C[C@@H](O)[C@]5(C)[C@@H](C7=CC(=O)OC7)CC[C@]65O)C4)O[C@@H]3C)O[C@@H]2C)C[C@H](O)[C@@H]1O [digoxin] | – | – | approximately 1.7 fold

— US20260115190A1, “DISPERSIONS OF ETRUMADENANT” (Arcus Biosciences, Inc., priority 2022, published 2026)
